Patent US6455540B1, “Methods of use of quinolone compounds against anaerobic pathogenic bacteria” (priority 1999, dated 2002)
Converted amounts (≈) assume the structure as drawn.

Tests used:
Experiment in all cases: Agar dilution MIC
[1] = system: Anaerobiospirillum thomasii; assay type: cell-based; details: Anaerobiospirillum thomasii, 13 isolates
[2] = system: Actinomyces odontolyticus; assay type: cell-based; details: Schaalia odontolytica, 10 isolates
Bacteroides ureolyticus = assay type: cell-based; details: 17 isolates
[3] = system: Prevotella heparinolytica; assay type: cell-based; details: Prevotella heparinolytica, 16 isolates
[4] = system: Fusobacterium spp group 1; assay type: cell-based; details: Fusobacterium, 19 isolates
[5] = system: Anaerobiospirillum succiniciproducens; assay type: cell-based; details: 3 isolates
Clostridium dfficile = assay type: cell-based, Clostridium difficile; details: Clostridium, read-out: Minimal Inhibitory Concentration 90% (MIC90), 14 isolates
Prevotella intermedia = assay type: cell-based; details: Prevotella intermedia, 11 isolates
[6] = system: Prevotella melaninogenica; assay type: cell-based; details: Prevotella melaninogenica, 12 isolates
Bilophila wadsworthia = assay type: cell-based; details: 16 isolates, agar supplemented with pyruvate
Actinomyces israelii = assay type: cell-based; details: 6 isolates
Porphyromonas canoris = assay type: cell-based; details: Porphyromonas canoris, 10 isolates
Bacteroides tectum = assay type: cell-based; details: Bacteroides pyogenes, 22 isolates
[7] = system: Peptostreptococcus magnus; assay type: cell-based; details: 13 isolates
Clostridium inocuum = assay type: cell-based, Clostridium innocuum; details: Clostridium, 11 isolates
[8] = system: Peptostreptococcus micros; assay type: cell-based; details: 12 isolates
Veillonella spp. = assay type: cell-based; details: Veillonella, 24 isolates
Porphyromonas gingivalis = assay type: cell-based; details: Porphyromonas gingivalis, 13 isolates
Porphyromonas macaccae = assay type: cell-based; details: Porphyromonas, 13 isolates
Fusobacterium russii = assay type: cell-based; details: Fusobacterium russii
Fusobacterium varium = assay type: cell-based; details: 17 isolates
[9] = system: Peptostreptococcus prevotii; assay type: cell-based; details: 9 isolates
Prevotella bivia = assay type: cell-based; details: Prevotella bivia, 21 isolates
[10] = system: Porphyromonas asaccharolyticus; assay type: cell-based, Porphyromonas asaccharolytica; details: Porphyromonas, 11 isolates
[11] = system: Fusobacterium spp. group 2; assay type: cell-based, Fusobacterium mortiferum, necrogenes, ulcerans; details: 12 isolates
[12] = system: Prevotella buccae-oris group; assay type: cell-based; details: Prevotella, 22 isolates
[13] = system: Peptostreptococcus asaccharolyticus; assay type: cell-based; details: Peptoniphilus asaccharolyticus, 11 isolates
Porphyromonas spp. = assay type: cell-based, Porphyromonas cangingivalis, cansulci, circumdentaria, levii; details: Porphyromonas, 11 isolates
Bacteroides gracilis = assay type: cell-based, Bacteroides gracilis (Campylobacter gracilis); details: 11 isolates
[14] = system: Prevotella denticola/loeschii group; assay type: cell-based; details: Prevotella denticola, read-out: Minimal Inhibitory Concentration 50% (MIC50); 6 isolates
Clostridium ramosum = assay type: cell-based; details: 10 isolates
[15] = system: Clostridium clostridioforme; assay type: cell-based; details: Clostridium, 11 isolates
[16] = read-out: Minimal Inhibitory Concentration 50% (MIC50)
[17] = read-out: Minimal Inhibitory Concentration 90% (MIC90)

## CCC[C@@H]1C[C@@H](C(=O)N[C@@H]([C@H]2O[C@H](SC)[C@H](O)[C@@H](O)[C@H]2O)[C@H](C)Cl)N(C)C1 [Clindamycin]
[1]; [16]
  MIC50: 32 µg/mL (≈ 75.3 µM)
[1]; [17]
  MIC90: > 32 µg/mL
[2]; [17]
  MIC90: 0.25 µg/mL (≈ 0.588 µM)
[2]; [16]
  MIC50: 0.125 µg/mL (≈ 0.294 µM)
Bacteroides ureolyticus
  Minimal Inhibitory Concentration Range: 0.03 to 0.5 µg/mL
Bacteroides ureolyticus; Campylobacter ureolyticus, read-out: Minimal Inhibitory Concentration 90% (MIC90)
  MIC90: 0.25 µg/mL (≈ 0.588 µM)
Bacteroides ureolyticus; Campylobacter ureolyticus, read-out: Minimal Inhibitory Concentration 50% (MIC50)
  MIC50: 0.06 µg/mL (≈ 0.141 µM)
[3]; [17]
  MIC90: ≤ 0.015 µg/mL
[3]; [16]
  MIC50: ≤ 0.015 µg/mL
[4]; GROUP1, read-out: Minimal Inhibitory Concentration 50% (MIC50)
  MIC50: 0.06 µg/mL (≈ 0.141 µM)
[4]; GROUP1, read-out: Minimal Inhibitory Concentration 90% (MIC90)
  MIC90: 0.125 µg/mL (≈ 0.294 µM)
[5]
  Minimal Inhibitory Concentration Range: 32 µg/mL
[5]; Anaerobiospirillum succiniciproducens, read-out: Minimal Inhibitory Concentration 50% (MIC50)
  MIC50: 32 µg/mL (≈ 75.3 µM)
Clostridium dfficile
  MIC90: > 32 µg/mL
Prevotella intermedia; [17]
  MIC90: ≤ 0.015 µg/mL
Prevotella intermedia; [16]
  MIC50: ≤ 0.015 µg/mL
[6]; [17]
  MIC90: 0.5 µg/mL (≈ 1.18 µM)
[6]; [16]
  MIC50: ≤ 0.015 µg/mL
Bilophila wadsworthia
  Minimal Inhibitory Concentration Range: 0.25 to 2 µg/mL
Bilophila wadsworthia; Bilophila wadsworthia, read-out: Minimal Inhibitory Concentration 90% (MIC90)
  MIC90: 2 µg/mL (≈ 4.71 µM)
Bilophila wadsworthia; Bilophila wadsworthia, read-out: Minimal Inhibitory Concentration 50% (MIC50)
  MIC50: 0.5 µg/mL (≈ 1.18 µM)
Actinomyces israelii
  Minimal Inhibitory Concentration Range: 0.06 to 0.25 µg/mL
Actinomyces israelii; Actinomyces israelii, read-out: Minimal Inhibitory Concentration 50% (MIC50)
  MIC50: 0.06 µg/mL (≈ 0.141 µM)
Porphyromonas canoris; [16]
  MIC50: ≤ 0.015 µg/mL
Porphyromonas canoris; [17]
  MIC90: ≤ 0.015 µg/mL
Bacteroides tectum; [17]
  MIC90: ≤ 0.015 µg/mL
Bacteroides tectum; [16]
  MIC50: ≤ 0.015 µg/mL
[7]
  Minimal Inhibitory Concentration Range: 0.06 to 2 µg/mL
[7]; Finegoldia magna, read-out: Minimal Inhibitory Concentration 50% (MIC50)
  MIC50: 0.5 µg/mL (≈ 1.18 µM)
[7]; Finegoldia magna, read-out: Minimal Inhibitory Concentration 90% (MIC90)
  MIC90: 2 µg/mL (≈ 4.71 µM)
Clostridium inocuum; [17]
  MIC90: > 32 µg/mL
Clostridium inocuum; [16]
  MIC50: 0.5 µg/mL (≈ 1.18 µM)
[8]
  Minimal Inhibitory Concentration Range: 0.06 to 0.125 µg/mL
[8]; Parvimonas micra, read-out: Minimal Inhibitory Concentration 50% (MIC50)
  MIC50: 0.125 µg/mL (≈ 0.294 µM)
[8]; Parvimonas micra, read-out: Minimal Inhibitory Concentration 90% (MIC90)
  MIC90: 0.125 µg/mL (≈ 0.294 µM)
Veillonella spp.; [17]
  MIC90: 2 µg/mL (≈ 4.71 µM)
Veillonella spp.; [16]
  MIC50: 0.06 µg/mL (≈ 0.141 µM)
Porphyromonas gingivalis; [16]
  MIC50: ≤ 0.015 µg/mL
Porphyromonas gingivalis; [17]
  MIC90: ≤ 0.015 µg/mL
Porphyromonas macaccae; [16]
  MIC50: ≤ 0.015 µg/mL
Porphyromonas macaccae; [17]
  MIC90: ≤ 0.015 µg/mL
Fusobacterium russii; [16]
  MIC50: 0.03 µg/mL (≈ 0.0706 µM)
Fusobacterium russii; [17]
  MIC90: 0.06 µg/mL (≈ 0.141 µM)
Fusobacterium varium
  Minimal Inhibitory Concentration Range: 0.06 to 16 µg/mL
Fusobacterium varium; Fusobacterium varium, read-out: Minimal Inhibitory Concentration 50% (MIC50)
  MIC50: 4 µg/mL (≈ 9.41 µM)
Fusobacterium varium; Fusobacterium varium, read-out: Minimal Inhibitory Concentration 90% (MIC90)
  MIC90: 16 µg/mL (≈ 37.6 µM)
[9]
  Minimal Inhibitory Concentration Range: 0.030 to 32 µg/mL
[9]; Anaerococcus prevotii, read-out: Minimal Inhibitory Concentration 50% (MIC50)
  MIC50: 1 µg/mL (≈ 2.35 µM)
Prevotella bivia; [17]
  MIC90: 0.03 µg/mL (≈ 0.0706 µM)
Prevotella bivia; [16]
  MIC50: ≤ 0.015 µg/mL
[10]; [16]
  MIC50: ≤ 0.015 µg/mL
[10]; [17]
  MIC90: > 32 µg/mL
[11]
  Minimal Inhibitory Concentration Range: 0.06 to 8 µg/mL
[11]; Fusobacterium, read-out: Minimal Inhibitory Concentration 50% (MIC50)
  MIC50: 1 µg/mL (≈ 2.35 µM)
[11]; Fusobacterium, read-out: Minimal Inhibitory Concentration 90% (MIC90)
  MIC90: 8 µg/mL (≈ 18.8 µM)
[12]; [17]
  MIC90: 0.03 µg/mL (≈ 0.0706 µM)
[12]; [16]
  MIC50: ≤ 0.015 µg/mL
[13]; [16]
  MIC50: 0.06 µg/mL (≈ 0.141 µM)
[13]; [17]
  MIC90: > 32 µg/mL
Porphyromonas spp.; [16]
  MIC50: ≤ 0.015 µg/mL
Porphyromonas spp.; [17]
  MIC90: ≤ 0.015 µg/mL
Bacteroides gracilis
  Minimal Inhibitory Concentration Range: 0.03 to 8 µg/mL
Bacteroides gracilis; Campylobacter gracilis, read-out: Minimal Inhibitory Concentration 90% (MIC90)
  MIC90: 2 µg/mL (≈ 4.71 µM)
Bacteroides gracilis; Campylobacter gracilis, read-out: Minimal Inhibitory Concentration 50% (MIC50)
  MIC50: 0.25 µg/mL (≈ 0.588 µM)
[14]
  MIC50: ≤ 0.015 µg/mL
Clostridium ramosum
  Minimal Inhibitory Concentration Range: 0.25 to 4 µg/mL
Clostridium ramosum; Thomasclavelia ramosa, read-out: Minimal Inhibitory Concentration 50% (MIC50)
  MIC50: 2 µg/mL (≈ 4.71 µM)
Clostridium ramosum; Thomasclavelia ramosa, read-out: Minimal Inhibitory Concentration 90% (MIC90)
  MIC90: 2 µg/mL (≈ 4.71 µM)
[15]; [17]
  MIC90: 2 µg/mL (≈ 4.71 µM)
[15]; [16]
  MIC50: 0.06 µg/mL (≈ 0.141 µM)
